Patent US11759461B2, “Small molecule inhibitors of cancer stem cells and mesenchymal cancer types” (The Scripps Research Institute, priority 2017, dated 2023)
pIC50: −log10 of the molar value. Read-outs that look alike come from different tables or passages of the source.

Key:
Type in all cases: cell-based
[1] = molecular target: T1, VIM (Homo sapiens, UniProt P08670); assay: Immunofluorescent analysis of VIM filamentous architecture in HUVECs; conditions: one-hour treatment
T1 construct: endogenous in cells; host or cells: FOXC2-HMLER

[2] = molecular target: T1, VIM; assay: Western blotting / immunofluorescence of VIM protein status in FOXC2-HMLER cells
Description: Western blotting was performed essentially as described previously (M. J. Bollong et al. ACS Chem. Biol. 10 (2015) 2193-2198). Cells were collected by brief trypsinization and centrifugation at 500 g for 5 minutes. Cells were lysed by the addition of RIPA buffer with protease and phosphatase inhibitors (Roche). Lysates were incubated on ice for 30 minutes before eliminating insoluble protein content by centrifugation at 12,000 g for 5 minutes at 4° C. Protein concentrations were determined from absorbance values obtained by a Nanodrop instrument. Equal amounts of protein were then mixed with 2× loading buffer (100 mM TRIS-HCl, 1% SDS, 10% glycerol, 0.1% bromophenol blue 10%-mercaptoethanol) and exposed to 95° C. for 5 minutes. Protein was separated by SDS-PAGE using 4-12% Bis-Tris Gels (Invitrogen) and then transferred to PVDF membranes (Invitrogen) using semi-dry transfer. Membranes were blocked for 1 hour at room temperature in 5% non-fat dry milk in TBST (Tris buffered saline with 0.1% Tween 20). Membranes were incubated overnight with primary antibodies in blocking buffer overnight at the dilutions ranging from 1:500 to 1:2000. After 3 washes with TBST, membranes were then exposed to HRP-conjugated secondary antibodies (1:5000 in blocking buffer, Sigma) for one hour followed by one hour of additional washing with TBST. Relative protein content was visualized using film and SuperSignal West Dura Substrate. For VIM degradation blots, 20-60 μg of protein content was loaded per gel lane and the anti-VIM antibody V9 (ab8069) was used to blot for VIM protein content. Phospho-protein blots were performed as above with the exception that primary antibodies were incubated in 5% bovine serum albumin in TBST instead of milk.
We performed Western blotting analysis of FOXC2-HMLER cells treated for 24 hours with Compound 1 with commercially available antibodies targeting specific phosphorylated VIM species (P-S39, P-S56, P-S83).
In contrast, only a small fraction of cells undergoing mitosis stained positive for P-S56-VIM in DMSO-treated controls, consistent with previous reports identifying phosphorylation at S56 as a modification catalyzed by cyclin dependent kinase 1 (CDK1; FIG. 6) (T. Yamaguchi, T. et al., J. Cell Biol. 171 (2005) 431-436.

[3] = tested on: FOXC2-expressing HMLER cells; assay: Cell Titer Glo viability of FOXC2-HMLER cells (high throughput screen and 10-point response); conditions: Homo sapiens
Procedure, shortened: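 Viability after 72 h compound exposure was measured as Cell Titer Glo luminescence. FOXC2-HMLER and parental HMLER cells, 1,000 per well in MEGM medium, were dosed 1 h after plating; screening concentration was 2 μM.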

[4] = FOXC2-HMLER cells, 24 hours, 500 nM, Western blotting
[5] = FOXC2-HMLER cells, Western blotting

T1 sequence (P08670 whole entry): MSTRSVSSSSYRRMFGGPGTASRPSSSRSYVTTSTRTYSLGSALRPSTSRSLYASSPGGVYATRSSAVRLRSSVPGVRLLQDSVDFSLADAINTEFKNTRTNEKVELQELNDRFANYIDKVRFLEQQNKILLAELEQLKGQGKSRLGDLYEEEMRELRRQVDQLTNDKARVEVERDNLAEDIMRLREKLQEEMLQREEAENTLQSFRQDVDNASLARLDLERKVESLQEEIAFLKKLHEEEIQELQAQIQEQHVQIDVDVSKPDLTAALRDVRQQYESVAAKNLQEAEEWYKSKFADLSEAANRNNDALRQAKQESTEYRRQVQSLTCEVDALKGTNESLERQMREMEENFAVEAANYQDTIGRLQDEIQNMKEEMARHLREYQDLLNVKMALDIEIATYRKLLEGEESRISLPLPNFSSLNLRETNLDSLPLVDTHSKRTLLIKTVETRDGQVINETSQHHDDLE

P-S39- and P-S83-VIM protein content [2, 4]: modest increase | steady state levels of P-S56-VIM [2, 4]: marked increase | dibromobimane-crosslinked dimeric VIM protein content [2, 5]: dramatically reduced | lower molecular weight VIM degradation products [2, 5]: dose-dependent accumulation | P-S56-VIM positive FOXC2-HMLER cells ([2]; immunofluorescent staining): concentration dependent increase
SMILES: Clc1cccc(N2CCN(c3cnnc4c(Cl)cccc34)CC2)c1 [Compound 1, 8-chloro-4-(4-(3-chlorophenyl)piperazin-1-yl)cinnoline]
VIM filamentous architecture in HUVECs [1]: promoted the destruction of fine VIM-containing filamentous structures | pIC50 ([3]; 72-hour incubation, read-out: FOXC2-HMLER IC50): 6.63 | pIC50 ([3]; scored relative to parent compound 1, 72 hours, read-out: Activity Score, inhibition of FOXC2-expressing HMLER cells by Formula I compounds): > 6.00
